Laboratory results reported in patent publication US20250332173A1, “COMPOUNDS AND METHODS FOR MODULATING NUCLEIC ACID SPLICING” (REMIX THERAPEUTICS INC., priority 2021, published 2025).
pIC50: −log10 of the molar value. Read-outs that look alike come from different tables or passages of the source.

Tests used:
Type in all cases: cell-based, human
[1] = test system: SMN2 mRNA; experiment: RT-qPCR splicing assay, SMN2 canonical junction (CJ) mRNA; settings: Homo sapiens; Table 5 panel; canonical junction qPCR; compound concentration having 50% response in CJ decrease; read-out: SMN2 IC50 (decrease in CJ mRNA levels)
Method: (§1) The expression of a target mRNA was measured by detecting the formation of an exon-exon junction in the canonical transcript (CJ). A compound mediated exon-inclusion event was detected by observing an increase in formation of a new junction with an alternative exon (AJ). Real-time qPCR assays were used to detect these splicing switches and interrogate the potency of various compounds towards different target genes. A high-throughput real time quantitative PCR (RT-qPCR) assay was developed to measure these two isoforms of the mRNA (CJ and AJ) for exemplary genes, such as HTT, SMN2, and MYB, together with a control housekeeping gene, GAPDH or GUSB or PPIA, used for normalization. Briefly, the A673 or K562 cell line was treated with various compounds described herein (e.g., compounds of Formula (I)). After treatment, the levels of the HTT, MYB, or SMN2 mRNA targets were determined from each sample of cell lysate by cDNA synthesis followed by qPCR.
(§2) The A673 cell line was cultured in DMEM with 10% FBS. Cells were diluted with full growth media and plated in a 96-well plate (15,000 cells in 100 ul media per well). The plate was incubated at 37° C. with 5% CO2 for 24 hours to allow cells to adhere. An 11-point 3-fold serial dilution of the compounds was made in DMSO then diluted in media in an intermediate plate. Compounds were transferred from the intermediate plate to the cell plate with the top dose at a final concentration of 10 uM in the well. Final DMSO concentration was kept at or below 0.25%. The cell plate was returned to the incubator at 37° C. with 5% CO2 for an additional 24 hours.
(§3) The K562 cell line was cultured in IMDM with 10% FBS. For K562, cells were diluted with full growth media and plated in either a 96-well plate (50,000 cells in 50 uL media per well) or a 384-well plate (8,000-40,000 cells in 45 uL media per well). An 11-point 3-fold serial dilution of the compounds were made in DMSO then diluted in media in an intermediate plate. Compound was transferred from the intermediate plate to the cell plate with the top dose at a final concentration of 10 uM in the well. Final DMSO concentration was kept at or below 0.25%. Final volume was 100 uL for 96-well plate and 50 uL for 384-well plate. The cell plate was then placed in an incubator at 37° C. with 5% CO2 for 24 hours.
(§4) The cells were then gently washed with 50 uL-100 uL cold PBS before proceeding to addition of lysis buffer. 30 uL-50 uL of room temperature lysis buffer with DNAse I (and optionally RNAsin) was added to each well. Cells were shaken/mixed thoroughly at room temperature for 5-10 minutes for lysis to take place and then 3 uL-5 uL of room temperature stop solution was added and wells were shaken/mixed again. After 2-5 minutes, the cell lysate plate was transferred to ice for RT-qPCR reaction setup. The lysates could also be frozen at −80° C. for later use.
(§5) In some cases, a direct lysis buffer was used. An appropriate volume of 3× lysis buffer (10 mM Tris, 150 mM NaCl, 1.5%-2.5% Igepal and 0.1-1 U/uL RNAsin, pH 7.4) was directly added to either K562 or A673 cells in media and mixed by pipetting 3 times. The plates were then incubated at room temperature with shaking/rocking for 20-50 minutes to allow for lysis to take place. After this time, the cell lysate plate was transferred to ice to set up for the RT-qPCR reactions. The lysates could also be frozen at −80° C. for later use.
(§6) To set up 10 uL RT-qPCR reactions, cell lysates were transferred to 384-well qPCR plates containing the master mix according to the table below. The plates were sealed, gently vortexed, and spun down before the run. The volumes were adjusted accordingly in some instances where the reaction was carried in 20 uL. The table below summarizes the components of the RT-qPCR reactions:
(§7) The RT-qPCR reaction was performed using a QuantStudio (ThermoFisher) under the following fast cycling conditions.

[2] = test system: HTT mRNA; experiment: RT-qPCR splicing assay, HTT canonical junction (CJ) and alternative junction (AJ) mRNA; settings: Homo sapiens; for AC50: increase in HTT alternative junction (AJ) mRNA, read-out: HTT AJ AC50
Method: as §1
(§8) • Cells-to-CT 1-step kit: ThermoFisher A25602, Cells-to-CT lysis reagent: ThermoFisher 4391851C, TaqMan™ Fast Virus 1-Step Master Mix: ThermoFisher 4444436 • GAPDH: VIC-PL, ThermoFisher 4326317E (Assay: Hs99999905_m1)—used for K562/suspension cell lines • GUSB: VIC-PL, ThermoFisher 4326320E (Assay: Hs99999908_m1)—used for K562/suspension cell lines • PPIA: VIC-PL, ThermoFisher 4326316E (Assay: Hs99999904_m1)—used for A673/adherent cell lines
as §2, §3, §4, §5

[3] = test system: MYB mRNA; experiment: RT-qPCR splicing assay, MYB canonical junction (CJ) and alternative junction (AJ) mRNA; settings: Homo sapiens; for AC50: increase in MYB alternative junction (AJ) mRNA, read-out: MYB AJ AC50
Method: as §1, §8, §2, §3, §4, §5

[4] = test system: Target C; experiment: RT-qPCR splicing assay panel, Target C canonical junction (CJ) mRNA; settings: Homo sapiens; Table 5 panel; canonical junction qPCR; compound concentration having 50% response in CJ decrease; read-out: Target C IC50 (decrease in CJ mRNA levels)
Method: as §1, §2, §3, §4, §5, §6, §7

[5] = decrease in HTT canonical junction (CJ) mRNA, RT-qPCR, read-out: HTT CJ IC50
[6] = Table 5 panel, canonical junction qPCR, compound concentration having 50% response in CJ decrease, read-out: HTT IC50 (decrease in CJ mRNA levels)
[7] = Table 5 panel, canonical junction qPCR, compound concentration having 50% response in CJ decrease, read-out: MYB IC50 (decrease in CJ mRNA levels)
[8] = decrease in MYB canonical junction (CJ) mRNA, RT-qPCR, read-out: MYB CJ IC50

pIC50 [1]	pIC50 [2, 5]	pIC50 [2, 6]	pIC50 [3, 7]	pIC50 [3, 8]	pIC50 [4]	Compound	AC50 ([2]; RT-qPCR)	AC50 ([3]; RT-qPCR)
5.00 to 6.00	< 5.00	< 5.00	< 5.00	< 5.00	5.00 to 6.00	CN1CCN(c2ccc3nc(-c4ccc5nn(C)cc5c4)[nH]c(=O)c3c2)CC1 [Compound 108]	> 10 µM	> 10 µM
6.00 to 7.00	5.00 to 6.00	5.00 to 6.00	5.00 to 6.00	5.00 to 6.00	5.00 to 6.00	Cc1cn2cc(-c3nc4ccc(N5CCN(C)CC5)cc4c(=O)[nH]3)cc(F)c2n1 [Compound 111]	1 to 10 µM	1 to 10 µM
> 7.00	< 5.00	< 5.00	5.00 to 6.00	6.00 to 7.00	< 5.00	Cc1cn2cc(-c3nc4ccc(N5CCNCC5)cc4c(=O)[nH]3)cc(F)c2n1 [Compound 115]	> 10 µM	1 to 10 µM
5.00 to 6.00	5.00 to 6.00	5.00 to 6.00	5.00 to 6.00	5.00 to 6.00	5.00 to 6.00	Cc1cc(-c2ccc3nc(N4CCNCC4)[nH]c(=O)c3c2)cc2cn(C)nc12 [Compound 166]	1 to 10 µM	1 to 10 µM
< 5.00	< 5.00	< 5.00	< 5.00	< 5.00	< 5.00	Cc1cc(-c2ccc3nc(NC4CCN(C)CC4)[nH]c(=O)c3c2)cc2cn(C)nc12 [Compound 167]	> 10 µM	> 10 µM
6.00 to 7.00	6.00 to 7.00	6.00 to 7.00	6.00 to 7.00	6.00 to 7.00	6.00 to 7.00	Cc1cn2nc(-c3ccc4nc(N5CCNC6(CC6)C5)[nH]c(=O)c4c3)cc(C)c2n1 [Compound 190]	0.1 to 1 µM	0.1 to 1 µM
< 5.00	< 5.00	< 5.00	< 5.00	< 5.00	< 5.00	Cc1cn2cc(-c3ccc4nc(N5CCNC6(CC6)C5)[nH]c(=O)c4c3)cc(F)c2n1 [Compound 191]	> 10 µM	> 10 µM
< 5.00	< 5.00	< 5.00	< 5.00	< 5.00	< 5.00	Cc1cn2nc(-c3ccc4nc(NC5CCNCC5)[nH]c(=O)c4c3)cc(C)c2n1 [Compound 192]	> 10 µM	> 10 µM
< 5.00	< 5.00	< 5.00	< 5.00	< 5.00	< 5.00	Cc1cn2cc(-c3ccc4nc(NC5CCNCC5)[nH]c(=O)c4c3)cc(F)c2n1 [Compound 238]	> 10 µM	> 10 µM
> 7.00	6.00 to 7.00	6.00 to 7.00	6.00 to 7.00	6.00 to 7.00	6.00 to 7.00	Cc1cn2cc(-c3ccc4c(=O)n(C5CCNC(C)C5)cnc4c3)cc(F)c2n1 (stereo not drawn) [Compound 323]	0.1 to 1 µM	0.1 to 1 µM
5.00 to 6.00	5.00 to 6.00	5.00 to 6.00	5.00 to 6.00	5.00 to 6.00	5.00 to 6.00	Cc1cn2nc(-c3ccc4c(c3)CCN(C3CCNC(C)C3)C4=O)cc(C)c2n1 (stereo not drawn) [Compound 327]	1 to 10 µM	1 to 10 µM
6.00 to 7.00	< 5.00	< 5.00	< 5.00	< 5.00	< 5.00	Cc1cn2cc(-c3cc(F)c4c(=O)n(C5CCNC6(CC6)C5)ccc4c3)cc(F)c2n1 (stereo not drawn) [Compound 471, 2-{4-azaspiro[2.5]octan-7-yl}-8-fluoro-6-{8-fluoro-2-methylimidazo[1,2-a]pyridin-6-yl}isoquinolin-1-one]	> 10 µM	> 10 µM
> 7.00	6.00 to 7.00	6.00 to 7.00	6.00 to 7.00	6.00 to 7.00	6.00 to 7.00	CNCCn1ncc2cc(-c3cc(C)c4nc(C)cn4n3)ccc2c1=O [Compound 472]	0.1 to 1 µM	0.1 to 1 µM
> 7.00	> 7.00	> 7.00	> 7.00	> 7.00	6.00 to 7.00	Cc1cn2cc(-c3cc(F)c4c(=O)n([C@H]5CC[C@H](N(C)C)CC5)ccc4c3)cc(F)c2n1 [Compound 654]	< 0.1 µM	< 0.1 µM
> 7.00	5.00 to 6.00	6.00 to 7.00	> 7.00	6.00 to 7.00	5.00 to 6.00	Cc1cn2nc(-c3cc(F)c4c(=O)n(C56CCC(N)(CC5)C6)ccc4c3)cc(C)c2n1 [Compound 655]	0.1 to 1 µM	< 0.1 µM
> 7.00	6.00 to 7.00	6.00 to 7.00	> 7.00	> 7.00	6.00 to 7.00	Cc1cn2cc(-c3cc(F)c4c(=O)n([C@H]5CC[C@@H](N(C)C)CC5)ccc4c3)cc(F)c2n1 [Compound 656]	0.1 to 1 µM	< 0.1 µM

Compound	pIC50 [1]	pIC50 [2, 5]	pIC50 [2, 6]	pIC50 [3, 7]	pIC50 [3, 8]	pIC50 [4]	AC50 ([2]; RT-qPCR)	AC50 ([3]; RT-qPCR)
Cc1cc(-c2nc3ccc(N(C)C4CCNCC4)cc3c(=O)[nH]2)cc2cn(C)nc12 [Compound 121, 2-(2,7-dimethyl-2H-indazol-5-yl)-6-(methyl(piperidin-4-yl)amino)quinazolin-4(3H)-one]	6.00 to 7.00	< 5.00	5.00 to 6.00	< 5.00	5.00 to 6.00	< 5.00	> 10 µM	> 10 µM
Cc1cc(-c2nc3ccc(N(C)C4CCN(C)CC4)cc3c(=O)[nH]2)cc2cn(C)nc12 [Compound 239]	5.00 to 6.00	< 5.00	< 5.00	< 5.00	5.00 to 6.00	< 5.00	> 10 µM	> 10 µM
